In US10526337B2, “Heteroaryl derivative or pharmaceutically acceptable salt thereof, preparation method therefor, and pharmaceutical composition for preventing or treating diseases associated with PI3 kinases, containing same as active ingredient” (KOREA RESEARCH INSTITUTE OF CHEMICAL TECHNOLOGY, priority 2015, dated 2020):

Experiments:
PI3 Kinase (p120γ) (h) = molecular target: T1, PI3 Kinase (p120γ) (h) (Homo sapiens, UniProt P48736); test: Inhibition of phosphatidylinositol 3-kinase gamma (PI3K γ), pAkt Western blotting in C5a-stimulated RAW264.7 macrophages; type: cell-based, mouse; details: ATP=10 uM, sample concentration=100 nM
T1 construct: endogenous in cells; host or cells: RAW264.7
T1 sequence (P48736 whole entry): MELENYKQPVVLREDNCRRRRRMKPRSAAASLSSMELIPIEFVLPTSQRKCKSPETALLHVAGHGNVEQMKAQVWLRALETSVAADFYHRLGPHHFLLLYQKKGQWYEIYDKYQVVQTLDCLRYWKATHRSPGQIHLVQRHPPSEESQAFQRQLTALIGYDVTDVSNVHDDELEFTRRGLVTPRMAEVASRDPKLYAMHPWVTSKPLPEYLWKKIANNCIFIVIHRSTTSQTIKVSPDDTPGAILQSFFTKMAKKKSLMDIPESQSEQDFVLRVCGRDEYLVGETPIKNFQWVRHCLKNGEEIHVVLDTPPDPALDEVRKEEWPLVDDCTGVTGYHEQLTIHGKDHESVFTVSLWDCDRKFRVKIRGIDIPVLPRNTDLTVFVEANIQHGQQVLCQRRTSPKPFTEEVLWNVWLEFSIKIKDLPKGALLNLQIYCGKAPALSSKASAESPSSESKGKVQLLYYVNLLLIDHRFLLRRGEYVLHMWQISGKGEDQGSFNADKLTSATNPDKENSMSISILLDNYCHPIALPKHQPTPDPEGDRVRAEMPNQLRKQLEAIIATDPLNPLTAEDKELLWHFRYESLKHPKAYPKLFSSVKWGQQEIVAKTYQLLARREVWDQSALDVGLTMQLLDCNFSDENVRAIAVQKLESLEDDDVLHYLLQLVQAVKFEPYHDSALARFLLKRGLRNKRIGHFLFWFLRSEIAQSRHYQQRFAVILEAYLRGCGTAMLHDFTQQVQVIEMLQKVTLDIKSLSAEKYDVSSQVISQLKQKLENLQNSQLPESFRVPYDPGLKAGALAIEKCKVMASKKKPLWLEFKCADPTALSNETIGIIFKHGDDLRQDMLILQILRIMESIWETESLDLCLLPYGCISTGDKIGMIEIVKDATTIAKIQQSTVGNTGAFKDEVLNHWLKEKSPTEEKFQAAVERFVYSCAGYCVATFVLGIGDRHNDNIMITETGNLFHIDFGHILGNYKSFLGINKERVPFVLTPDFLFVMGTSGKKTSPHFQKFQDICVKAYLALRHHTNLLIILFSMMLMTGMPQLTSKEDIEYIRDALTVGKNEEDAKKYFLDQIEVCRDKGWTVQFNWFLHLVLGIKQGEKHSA
Description: (§1) The stimulated cells were transferred in a 1.5 mL tube, followed by centrifugation at 3000 rpm for 1 minute. 100 μL of RIPA buffer (radioimmunoprecipitation assay buffer, 50 mM Tris-HCl, 5 mM EDTA, 150 mM NaCl, 1% NP-40, 1 mM PMSF, pH 8.0; ELPIS, Korea) was added thereto, which was stored in a 4° C. refrigerator for 12 hours. Centrifugation was performed at 4° C. at 14,000 rpm for 20 minutes. The supernatant was transferred into a new 1.5 mL tube. Protein was quantified by BCA (bicinchoninic acid) method and samples were prepared. The composition of the sample was as follows: sample buffer (ELPIS, EBA-1052) 5×, protein 10 μg, and 1× sample buffer to make the total volume 20 μL. The sample was heated at 100° C. for 5 minutes. The evaporated water vapor was condensed in a refrigerator. The liquid stained on the wall was fallen down by centrifugation for a few seconds. The sample proceeded to 10% SDS (Sodium Dodecyl Sulfate) acrylamide gel for separation. The separated protein was transferred onto PVDF (poly-vinyl difluoride) membrane, followed by reaction with pAkt (phospho protein kinase B) antibody (Ser473 or Thr308; Cell signaling, 9271s or 13038s) for 12 hours at 4° C. The membrane was washed with TBST (Tris-Buffered Saline with Tween 20, 10 mM Tris-HCl, pH 7.5, 150 mM NaCl, 0.1% Tween-20) three times for 5 minutes each, to which the secondary antibody (rabbit antibody, Santacruz, sc-2004) was added, followed by reaction at room temperature for 2 hours. The membrane was washed with TBST three times for 10 minutes each, to which ECL (enhanced chemiluminescence, Thermo, NCI34095KR) was sprayed. Bands were investigated by using LAS-3000.
The inhibition of phosphatidylinositol 3 kinase gamma (PI3K γ) by those compounds prepared in Examples 1˜98 was investigated by the following experiment. The inhibition activity of each compound was measured in the following conditions: ATP=10 uM, and sample concentration=100 nM.
(§2) Macrophages (RAW264.7) cultured in DMEM (Dulbecco's Modified Eagle Medium, Hyclon, SH30243.01) supplemented with 10% fetal bovine serum (Hyclon, USA) were distributed in a 12-well plate at the density of 1,000,000 cells/well. The cells were stabilized in a 37° C. CO2 for 24 hours and then treated with each compound for 1 and half hours. The cells were treated with 10 ng/mL of C5a (complement component 5a, 10 μg/mL; R&D, 2150-C5) to increase the intracellular activity of PI3K gamma. 5 minutes later, the medium was discarded and the cells were washed with cold PBS (phosphate buffered saline, Gibco, 14190-250). PBS was then eliminated completely by using a pipette. Western blotting was performed according to the same manner as described in step 2 of Experimental Example 1 to evaluate the intracellular PI3K gamma activity.

[1] = molecular target: T2, PI3 Kinase (p110δ/p85α) (h) (Homo sapiens, UniProt O00329); test: Inhibition of phosphatidylinositol 3-kinase delta (PI3K δ), pAkt Western blotting in IgM-stimulated Raji cells; type: cell-based; details: ATP=10 uM, sample concentration=100 nM
T2 construct: endogenous in cells; host or cells: Raji
T2 sequence (O00329 whole entry): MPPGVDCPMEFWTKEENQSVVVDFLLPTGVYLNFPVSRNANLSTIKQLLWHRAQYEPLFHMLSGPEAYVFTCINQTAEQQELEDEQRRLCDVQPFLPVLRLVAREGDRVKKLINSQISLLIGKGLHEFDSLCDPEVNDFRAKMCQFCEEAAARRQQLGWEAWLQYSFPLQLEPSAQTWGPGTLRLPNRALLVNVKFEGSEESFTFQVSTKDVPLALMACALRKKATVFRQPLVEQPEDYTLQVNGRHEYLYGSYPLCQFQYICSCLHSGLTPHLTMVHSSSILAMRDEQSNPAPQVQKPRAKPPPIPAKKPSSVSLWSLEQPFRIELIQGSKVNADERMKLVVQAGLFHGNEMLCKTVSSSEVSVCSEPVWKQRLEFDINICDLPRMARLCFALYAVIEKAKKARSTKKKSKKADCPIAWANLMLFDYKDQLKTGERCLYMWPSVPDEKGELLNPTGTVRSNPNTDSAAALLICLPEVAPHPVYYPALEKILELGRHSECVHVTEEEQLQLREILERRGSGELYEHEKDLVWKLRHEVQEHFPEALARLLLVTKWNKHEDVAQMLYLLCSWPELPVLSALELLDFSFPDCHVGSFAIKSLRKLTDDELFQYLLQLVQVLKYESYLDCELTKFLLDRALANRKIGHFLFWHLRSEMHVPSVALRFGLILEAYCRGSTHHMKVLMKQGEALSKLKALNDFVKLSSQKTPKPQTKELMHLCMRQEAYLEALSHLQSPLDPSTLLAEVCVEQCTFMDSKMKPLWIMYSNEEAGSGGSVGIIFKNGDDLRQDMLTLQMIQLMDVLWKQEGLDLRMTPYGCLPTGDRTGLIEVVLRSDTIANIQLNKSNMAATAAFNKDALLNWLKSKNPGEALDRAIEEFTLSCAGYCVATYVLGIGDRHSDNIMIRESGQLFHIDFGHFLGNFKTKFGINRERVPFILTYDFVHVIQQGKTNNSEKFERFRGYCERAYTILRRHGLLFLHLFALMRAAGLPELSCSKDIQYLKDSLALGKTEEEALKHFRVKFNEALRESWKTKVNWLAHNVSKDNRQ
T2 sequence (P27986 whole entry partner): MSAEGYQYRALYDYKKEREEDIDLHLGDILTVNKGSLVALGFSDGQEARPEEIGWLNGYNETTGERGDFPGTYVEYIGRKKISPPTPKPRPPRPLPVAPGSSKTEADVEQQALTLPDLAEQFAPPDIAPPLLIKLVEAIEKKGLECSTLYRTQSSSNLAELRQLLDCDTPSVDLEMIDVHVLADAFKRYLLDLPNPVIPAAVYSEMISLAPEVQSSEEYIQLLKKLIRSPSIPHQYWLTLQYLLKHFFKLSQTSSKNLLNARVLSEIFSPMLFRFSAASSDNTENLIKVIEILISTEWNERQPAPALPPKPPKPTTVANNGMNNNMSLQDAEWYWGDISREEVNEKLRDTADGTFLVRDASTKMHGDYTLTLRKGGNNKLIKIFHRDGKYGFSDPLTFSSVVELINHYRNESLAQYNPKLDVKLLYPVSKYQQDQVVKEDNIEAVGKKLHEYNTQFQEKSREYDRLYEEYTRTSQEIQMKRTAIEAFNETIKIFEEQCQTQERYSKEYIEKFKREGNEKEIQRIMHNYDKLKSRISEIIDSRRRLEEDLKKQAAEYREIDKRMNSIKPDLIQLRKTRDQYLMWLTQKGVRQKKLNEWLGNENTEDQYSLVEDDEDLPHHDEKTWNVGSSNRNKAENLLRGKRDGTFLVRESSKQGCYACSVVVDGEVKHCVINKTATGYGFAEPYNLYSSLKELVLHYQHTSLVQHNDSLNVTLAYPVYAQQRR
Description: as §1
The inhibition of phosphatidylinositol 3 kinase delta (PI3K δ) by those compounds prepared in Examples 1˜98 was investigated by the following experiment. The inhibition activity of each compound was measured in the following conditions: ATP=10 uM, and sample concentration=100 nM.
as §2, with “Raji cells” for “Macrophages (RAW264.7)”, “RPMI1640 (Hyclone, SH30027.02)” for “DMEM (Dulbecco's Modified Eagle Medium, Hyclon, SH30243.01)”, “0.25 μg/mL” for “10 ng/mL”, “IgM (immunoglobulin M, Southern Biotech, USA)” for “C5a (complement component 5a, 10 μg/mL; R&D, 2150-C5)”, “delta. 30” for “gamma. 5”, “delta” for “gamma”

| IC50 (PI3 Kinase (p120γ) (h)) | IC50 [1] | SMILES |
| --- | --- | --- |
| < 10 nM | < 10 nM | C[C@H](Nc1nc(N)nc2c1C(=O)N(C)CN2)c1cc2cccc(Cl)c2c(=O)n1-c1ccccc1 [Example 52, (S)-7-amino-5-((1-(8-chloro-1-oxo-2-phenyl-1,2-dihydroisoquinoline-3-yl)ethyl)amino)-3-methyl-2,3-dihydropyrimido[4,5-d]pyrimidine-4(1H)-one] |
| > 500 nM | > 500 nM | CC[C@H](Nc1ncnc2c1C(=O)N(C(C)C)CN2)c1nc2cccc(F)c2c(=O)n1-c1ccccc1 [Example 65, (S)-5-(1-(5-fluoro-4-oxo-3-phenyl-3,4-dihydroquinazoline-2-yl)propylamino)-3-isopropyl-2,3-dihydropyrimido[4,5-d]pyrimidine-4(1H)-one] |
| > 500 nM | 10 to 500 nM | C[C@H](Nc1ncnc2[nH]cnc(=O)c12)c1nn2ccc(Cl)c2c(=O)n1-c1ccccc1 [Example 71, (S)-5-((1-(5-chloro-4-oxo-3-phenyl-3,4-dihydropyrrolo[2,1-f][1,2,4]triazine-2-yl)ethyl)amino)pyrimido[4,5-d]pyrimidine-4(1H)-one] |
| 10 to 500 nM | 10 to 500 nM | C[C@H](Nc1nc(N)nc2[nH]cnc(=O)c12)c1nc2cccc(Cl)c2c(=O)n1-c1ccccc1 [Example 81, (S)-7-amino-5-((1-(5-chloro-4-oxo-3-phenyl-3,4-dihydroquinazoline-2-yl)ethyl)amino)pyrimido[4,5-d]pyrimidine-4(1H)-one] |
| 10 to 500 nM | < 10 nM | C[C@H](Nc1nc(N)nc2c1C(=O)N(C)CN2)c1nc2cccc(Cl)c2c(=O)n1-c1cccc(F)c1 [Example 50, (S)-7-amino-5-((1-(5-chloro-3-(3-fluorophenyl)-4-oxo-3,4-dihydroquinazoline-2-yl)ethyl)amino)-3-methyl-2,3-dihydropyrimido[4,5-d]pyrimidine-4(1H)-one] |
| > 500 nM | > 500 nM | CC[C@H](Nc1ncnc2[nH]cnc(=O)c12)c1nc2cccc(F)c2c(=O)n1-c1ccccc1 [Example 73, (S)-5-((1-(5-fluoro-4-oxo-3-phenyl-3,4-dihydroquinazoline-2-yl)propyl)amino)pyrimido[4,5-d]pyrimidine-4(1H)-one] |
| 10 to 500 nM | < 10 nM | C[C@H](Nc1nc(N)nc2c1C(=O)N(C)CN2)c1nc2cccc(Cl)c2c(=O)n1-c1cccnc1 [Example 49, (S)-7-amino-5-((1-(5-chloro-4-oxo-3-(pyridine-3-yl)-3,4-dihydroquinazoline-2-yl)ethyl)amino)-3-methyl-2,3-dihydropyrimido[4,5-d]pyrimidine-4(1H)-one] |
| < 10 nM | < 10 nM | C[C@H](Nc1nc(N)nc2c1C(=O)N(C)CN2)c1nc2cccc(Cl)c2c(=O)n1-c1ccccc1 [Example 48, (S)-7-amino-5-((1-(5-chloro-4-oxo-3-phenyl-3,4-dihydroquinazoline-2-yl)ethyl)amino)-3-methyl-2,3-dihydropyrimido[4,5-d]pyrimidine-4(1H)-one] |
| 10 to 500 nM | < 10 nM | CN1CNc2ncnc(N3CCC[C@H]3c3cc4cccc(Cl)c4c(=O)n3-c3ccccc3)c2C1=O [Example 46, (S)-5-(2-(8-chloro-1-oxo-2-phenyl-1,2-dihydroisoquinoline-3-yl)pyrrolidine-1-yl)-3-methyl-2,3-dihydropyrimido[4,5-d]pyrimidine-4(1H)-one] |
| > 500 nM | > 500 nM | Nc1nc(N2CCC[C@H]2c2nc3cccc(Cl)c3c(=O)n2-c2cccc(F)c2)c2c(=O)nc[nH]c2n1 [Example 92, (S)-7-amino-5-(2-(5-chloro-3-(3-fluorophenyl)-4-oxo-3,4-dihydroquinazoline-2-yl)pyrrolidine-1-yl)pyrimido[4,5-d]pyrimidine-4(1H)-one] |
| 10 to 500 nM | 10 to 500 nM | CC(Nc1ncnc2c1C(=O)N(C)CN2)c1cc2ccccc2nc1-c1ccccc1 (stereo not drawn) [Example 39, 3-methyl-5-((1-(2-phenylquinoline-3-yl)ethyl)amino)-2,3-dihydropyrimido[4,5-d]pyrimidine-4(1H)-one] |
| 10 to 500 nM | < 10 nM | Cc1cccc(-n2c([C@H](C)Nc3nc(N)nc4c3C(=O)N(C)CN4)nc3cccc(Cl)c3c2=O)c1 [Example 51, (S)-7-amino-5-((1-(5-chloro-4-oxo-3-(m-tolyl)-3,4-dihydroquinazoline-2-yl)ethyl)amino)-3-methyl-2,3-dihydropyrimido[4,5-d]pyrimidine-4(1H)-one] |
| 10 to 500 nM | < 10 nM | Cc1cccc(-n2c([C@H](C)Nc3ncnc4c3C(=O)N(C)CN4)nc3cccc(Cl)c3c2=O)c1 [Example 37, (S)-5-((1-(5-chloro-4-oxo-3-(m-tolyl)-3,4-dihydroquinazoline-2-yl)ethyl)amino)-3-methyl-2,3-dihydropyrimido[4,5-d]pyrimidine-4(1H)-one] |
| > 500 nM | > 500 nM | Cc1cccc(-n2c([C@@H]3CCCN3c3ncnc4[nH]cnc(=O)c34)nc3cccc(Cl)c3c2=O)c1 [Example 78, (S)-5-(2-(5-chloro-4-oxo-3-(m-tolyl)-3,4-dihydroquinazoline-2-yl)pyrrolidine-1-yl)pyrimido[4,5-d]pyrimidine-4(1H)-one] |
| 10 to 500 nM | 10 to 500 nM | CN1CNc2ncnc(N3CCC[C@H]3c3nn4ccc(Cl)c4c(=O)n3-c3ccccc3)c2C1=O [Example 47, (S)-5-(2-(5-chloro-4-oxo-3-phenyl-3,4-dihydropyrrolo[2,1-f][1,2,4]triazine-2-yl)pyrrolidine-1-yl)-3-methyl-2,3-dihydropyrimido[4,5-d]pyrimidine-4(1H)-one] |
| > 500 nM | > 500 nM | C[C@H](Nc1ncnc2[nH]cnc(=O)c12)c1cc2ccccc2nc1-c1ccccc1 [Example 72, (S)-5-((1-(2-phenylquinoline-3-yl)ethyl)amino)pyrimido[4,5-d]pyrimidine-4(1H)-one] |
| > 500 nM | > 500 nM | CC(C)N1CNc2ncnc(N[C@@H](C)c3cc4cccc(Cl)c4c(=O)n3-c3ccccc3)c2C1=O [Example 64, (S)-5-(1-(8-chloro-1-oxo-2-phenyl-1,2-dihydroisoquinoline-3-yl)ethylamino)-3-isopropyl-2,3-dihydropyrimido[4,5-d]pyrimidine-4(1H)-one] |
| 10 to 500 nM | 10 to 500 nM | Cc1cccc(-n2c([C@@H]3CCCN3c3ncnc4c3C(=O)N(C)CN4)nc3cccc(Cl)c3c2=O)c1 [Example 45, (S)-5-(2-(5-chloro-4-oxo-3-(m-tolyl)-3,4-dihydroquinazoline-2-yl)pyrrolidine-1-yl)-3-methyl-2,3-dihydropyrimido[4,5-d]pyrimidine-4(1H)-one] |
| > 500 nM | > 500 nM | Nc1nc(N2CCC[C@H]2c2nc3cccc(Cl)c3c(=O)n2-c2cccnc2)c2c(=O)nc[nH]c2n1 [Example 91, (S)-7-amino-5-(2-(5-chloro-4-oxo-3-(pyridine-3-yl)-3,4-dihydroquinazoline-2-yl)pyrrolidine-1-yl)pyrimido[4,5-d]pyrimidine-4(1H)-one] |
|  | > 500 nM | C[C@H](Nc1ncnc2[nH]ccc(=O)c12)c1nc2ccc(F)cc2c(=O)n1Cc1ccccn1 [Example 32, (S)-4-((1-(6-fluoro-4-oxo-3-(pyridine-2-ylmethyl)-3,4-dihydroquinazoline-2-yl)ethyl)amino)pyrido[2,3-d]pyrimidine-5(8H)-one] |
